Measurements reported in BindingDB's records for doi:10.1016/s0960-894x(98)00721-5 (Tumor Biology Center, 1999).

target: Phospholipase A2 (Naja mossambica mossambica); experiment: Phospholipase A2 inhibition using mixed micelles pH-stat assay and 14 kDa-Phospholipase A2 from Naja mossambica mossambica

| Compound | IC50 [µM] |
| --- | --- |
| CCCCCCCCCCCCCCCC(=O)OCCCCCCC[C@H](COP(=O)(O)OC)NC(C)=O [Hexadecanoic acid (R)-8-acetylamino-9-(hydroxy-methoxy-phosphoryloxy)-nonyl ester] | 5 |
| CCCCCCCC(=O)OCCCCCCC[C@H](COP(=O)(O)OC)NC(C)=O [Octanoic acid (R)-8-acetylamino-9-(hydroxy-methoxy-phosphoryloxy)-nonyl ester] | 3.1 |
| CCCCCCCCCCCCCCCCOCCOCCCCCCC[C@H](COP(=O)(O)OC)NC(C)=O [Phosphoric acid (R)-2-acetylamino-9-(2-hexadecyloxy-ethoxy)-nonyl ester methyl ester] | 1.7 |
| COP(=O)(O)OC[C@@H](CCCCCCCO)NC(C)=O [Phosphoric acid (R)-2-acetylamino-9-hydroxy-nonyl ester methyl ester] | 350 |
| CCCCCCCCCCCCCCCC[C@H](COP(=O)(O)OC)NC(C)=O [Phosphoric acid (R)-2-acetylamino-octadecyl ester methyl ester] | 3.4 |
| COP(=O)(O)OC[C@@H](CCCCCCCOC(=O)CCC(=O)OC1CCC2(C)C(=CCC3C2CCC2(C)C(C(C)CCCC(C)C)CCC32)C1)NC(C)=O (stereo partly drawn) [Succinic acid (R)-8-acetylamino-9-(hydroxy-methoxy-phosphoryloxy)-nonyl ester 17-(1,5-dimethyl-hexyl)-10,13-dimethyl-2,3,4,7,8,9,10,11,12,13,14,15,16,17-tetradecahydro-1H-cyclopenta[a]phenanthren-3-yl ester] | 2.3 |
